Results as given in PMC3531252 (EJNMMI Research, 2012).
Several values for one entry are separate records, joined by “and”; a condition that tells them apart may be missing. Equal entries are not always repeated. One block for each compound: values may come before it.

How the values were obtained:
[1] = tested on: GlyT1; experiment: GlyT1 occupancy and VND by Lassen plot, PET in rhesus monkeys; format: in vivo, rhesus monkey; conditions: for GlyT1 occupancy: seven regions; for % of VND in VT ACC: anterior cingulate cortex; for % of VND in VT FC: frontal cortex; for % of VND in VT PUT: putamen; for % of VND in VT TC: temporal cortex
Method: (§1) PET measurements were performed for 123 min immediately after i.v. injection of radioligand at baseline and after pretreatment with SSR504734. SSR504734 was administered over 15 min, starting 30 min before the radioligand injection. PET measurements were performed on two separate days with two monkeys. One baseline PET measurement and one PET measurement after pretreatment with 1.5 mg/kg of SSR504734 were performed on one monkey. One baseline PET measurement and one PET measurement after pretreatment with 4.5 mg/kg were performed on the other monkey.
GlyT1 occupancy was estimated by applying Lassen plot approach, which can determine nondisplaceable distribution volume (VND) and occupancy using VT values at baseline and after pretreatment. Seven regions (the pons, cerebellum, putamen, frontal cortex, caudate, anterior cingulate cortex, and temporal cortex) were used for the plot.

[2] = target: T1, GlyT1 (Homo sapiens, UniProt P48067); experiment: in vitro whole-hemisphere autoradiography on human brain slices; format: binding; conditions: blocker 10 μM
T1 construct: whole-hemisphere autoradiography (ARG) on human brain slices; from tissue; host or cells: post-mortem human brain whole-hemisphere cryosections
T1 sequence (P48067 1-706): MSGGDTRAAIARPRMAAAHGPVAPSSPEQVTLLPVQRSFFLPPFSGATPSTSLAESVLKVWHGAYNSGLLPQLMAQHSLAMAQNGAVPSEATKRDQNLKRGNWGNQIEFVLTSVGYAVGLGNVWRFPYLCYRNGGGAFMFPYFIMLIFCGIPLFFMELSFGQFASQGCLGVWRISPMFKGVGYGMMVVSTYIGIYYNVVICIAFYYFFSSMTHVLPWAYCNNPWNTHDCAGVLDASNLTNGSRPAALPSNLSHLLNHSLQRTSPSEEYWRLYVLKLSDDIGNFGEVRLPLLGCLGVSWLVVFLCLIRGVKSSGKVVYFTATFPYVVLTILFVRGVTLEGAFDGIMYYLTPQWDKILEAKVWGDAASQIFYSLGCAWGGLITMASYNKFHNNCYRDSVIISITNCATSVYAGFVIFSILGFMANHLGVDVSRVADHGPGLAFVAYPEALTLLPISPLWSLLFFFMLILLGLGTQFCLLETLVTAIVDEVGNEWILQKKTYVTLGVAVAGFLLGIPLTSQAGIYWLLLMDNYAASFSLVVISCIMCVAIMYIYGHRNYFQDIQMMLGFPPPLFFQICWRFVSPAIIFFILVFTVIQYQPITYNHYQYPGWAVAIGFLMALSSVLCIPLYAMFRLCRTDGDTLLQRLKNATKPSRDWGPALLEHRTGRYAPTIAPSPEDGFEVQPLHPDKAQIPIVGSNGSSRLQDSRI
Method: Human brains without pathology were obtained from the National Institute of Forensic Medicine, Karolinska Institutet (Stockholm, Sweden) as well as from the Department of Forensic and Insurance Medicine, Semmelweis University, Budapest. […] The sectioning of the brains and the autoradiography experiments were performed at the Department of Clinical Neuroscience, Karolinska Institutet. The cryosectioning took place on a Leica cryomacrocut system (San Marcos, CA, USA) [28, 29]. Horizontal sections (100 μm thick, containing cerebral cortex, white matter, cerebellum, and pons) and coronal sections (100 μm thick, containing cerebral cortex, white matter, putamen, and caudate nucleus) were used. […] For comparison with other GlyT1 radioligands, blocking was also made with SSR504734 (10 μM). The slices were rinsed thrice for 3 min each with cold (5°C) washing buffer (120 mM NaCl, 50 mM Tris–HCl, pH = 7.5) and subsequently dipped into cold water. The slides were then placed on an imaging plate (Fujifilm Plate BAS-TR2025, Fujifilm, Tokyo, Japan) for 20 min. The plates were developed, and the resulting images were processed in a Fujifilm BAS-5000 phosphorimager (Fujifilm, Tokyo, Japan). […] The autoradiography (ARG) signal's optical density was measured using Multi Gauge 3.2 image analysis software (Fujifilm, Tokyo, Japan).

[3] = tested on: GlyT1; experiment: PET measurements using a cynomolgus monkey; format: in vivo
Method: PET measurements were performed for 123 min immediately after intravenous (i.v.) injection of radioligand at baseline and after pretreatment with SSR504734. SSR504734 was administered over 15 min, starting 30 min before the radioligand injection. PET measurements were performed on two separate days at a 6-week interval. One baseline PET measurement and one PET measurement after pretreatment with 0.1 mg/kg of SSR504734 were performed on the first day. One baseline PET measurement and two PET measurements after pretreatment with 0.5 and 1.5 mg/kg of SSR504734 were performed on the second day.
Regions of interest (ROI) for the thalamus, cerebellum, caudate, putamen, frontal cortex, temporal cortex, anterior cingulate cortex, pons, white matter, and the whole-brain contour were delineated on PET/MRI co-registered brain images for each monkey. […] PET data were analyzed using several parameters such as percent injected dose (%ID) and percent standard uptake value (%SUV), where

[4] = metabolite analysis of plasma by radio-HPLC during PET; format: in vivo, cynomolgus monkey
Method: During each PET measurement, venous blood samples were taken from a femoral vein for the measurement of [^11 C]
From the obtained blood samples, plasma was obtained after centrifugation at 2,000 × g for 2 to 4 min and was mixed with 1.4 times the volume of acetonitrile. The supernatant acetonitrile-plasma mixture obtained after centrifugation at 2,000 × g for 2 to 4 min was injected into the radio-HPLC system. HPLC analysis was performed on a Waters μ-Bondapak-C18 column (300 × 7.8 mm, 10 μm) by gradient elution using (a) ammonium formate (100 mM) and (b) acetonitrile at 6.0 mL/min.

[5] = tested on: GlyT1; experiment: PET measurements using rhesus monkeys, VT by two-tissue compartment model; format: in vivo, rhesus monkey; parameters: VT (baseline) WB / VT (baseline) THA / VT (baseline) CB / VT (baseline) CAU / VT (baseline) FC / VT (baseline) ACC / VT (baseline) TC: unit not given here; conditions: for VT (baseline) ACC / VT (baseline) CAU / VT (baseline) CB / VT (baseline) FC / VT (baseline) Pons / VT (baseline) PUT / VT (baseline) TC / VT (baseline) THA / VT (baseline) WB: 2TC
Method: PET measurements were performed using a high-resolution research tomograph (CTI/Siemens Molecular Imaging, Knoxville, TN, USA) with an in-plane resolution less than 1.5 mm FWHM in the center of the FOV [30]. PET data were acquired by list mode. The data were reconstructed with a series of frames (5 × 1 min, 5 × 3 min, 5 × 6 min, and 13 × 10 min) using the Ordinary Poisson-3D-Ordered Subset Expectation Maximization (OP03D-OSEM) algorithm with 10 iterations and 16 subsets including modeling of the points spread function. Image reconstruction was performed on a quad-core PC running a fast reconstruction algorithm.
Anesthesia was induced by intramuscular injection of ketamine hydrochloride (60 mg) and maintained by the administration of a mixture of sevoflurane, O2, and medical air after endotracheal intubation. The head was immobilized with a fixation device. Body temperature was maintained by Bair Hugger Model 505 (Arizant Healthcare, MN, USA) and monitored by an esophageal thermometer. ECG, heart rate, respiratory rate, and oxygen saturation were continuously monitored throughout the experiments. Blood pressure was monitored every 5 min.
as §1
During each PET measurement, arterial blood was collected continuously for 3 min using an automated blood-sampling system at a speed of 3.0 mL/min (Allog AB, Molndal, Sweden). Blood samples (1.0 to 2.5 mL) were drawn at 4, 15, 30, 60, 90, and 120 min after the radioligand injection for blood and plasma radioactivity and metabolite correction.
Regions of interest (ROI) for the thalamus, cerebellum, caudate, putamen, frontal cortex, temporal cortex, anterior cingulate cortex, pons, white matter, and the whole-brain contour were delineated on PET/MRI co-registered brain images for each monkey. Co-registrations and ROI delineations were performed using PMOD 3.0 (Pixel-Wise Modeling Computer Software, PMOD Group, Zurich, Switzerland). PET data were analyzed using several parameters such as percent injected dose (%ID) and percent standard uptake value (%SUV), where
%ID=total radioactivity in the whole brain (MBq)/injected radioactivity (MBq)×100
%SUV=radioactivity (MBq/cc)/injected radioactivity (MBq)×body weight g×100.
In the PET measurements using rhesus monkeys, the total distribution volume (VT) was calculated by a two-tissue compartment model as well.

[6] = baseline + blocking (1.5 mg/kg)
[7] = baseline + blocking (4.5 mg/kg)

reduction of [11C]N-methyl-SSR504734 binding by blocker [2]: prominent in the white matter and pons
Compound: O=C(N[C@@H](c1ccccc1)[C@@H]1CCCCN1)c1cccc(C(F)(F)F)c1Cl [SSR504734, reference compound]
GlyT1 occupancy ([1]; 1.5 mg/kg SSR504734, rhesus monkey 1, Lassen plot): 45% and 45.2%
GlyT1 occupancy ([1]; 4.5 mg/kg SSR504734, rhesus monkey 2, Lassen plot): 74.3%
Kd of occupancy-dose relationship ([1]; Omax assumed 100%): 1.7 mg/kg

time of whole brain peak ([3]; baseline, N = 2): 24 min
metabolites detected in the plasma ([4]; radiochromatograms, 4 and 90 min): more hydrophilic metabolites
fraction metabolized in plasma ([4]; within 90 min after injection): over 70%
VT (baseline) ACC ([5]; rhesus monkey 1, anterior cingulate cortex): 28.6
VT (Blocking (1.5 mg/kg)) ACC ([5]; rhesus monkey 1, anterior cingulate cortex, after SSR504734 1.5 mg/kg): 22.5
VT (baseline) CAU ([5]; rhesus monkey 1, caudate): 26.2
VT (Blocking (1.5 mg/kg)) CAU ([5]; rhesus monkey 1, caudate, after SSR504734 1.5 mg/kg): 22.0
VT (baseline) CB ([5]; rhesus monkey 1, cerebellum): 23.7
VT (Blocking (1.5 mg/kg)) CB ([5]; rhesus monkey 1, cerebellum, after SSR504734 1.5 mg/kg): 20.4
VT (baseline) FC ([5]; rhesus monkey 1, frontal cortex): 25.2
VT (Blocking (1.5 mg/kg)) FC ([5]; rhesus monkey 1, frontal cortex, after SSR504734 1.5 mg/kg): 20.6
VT (baseline) Pons ([5]; rhesus monkey 1, pons): 35.2
VT (Blocking (1.5 mg/kg)) Pons ([5]; rhesus monkey 1, pons, after SSR504734 1.5 mg/kg): 26.8
VT (baseline) PUT ([5]; rhesus monkey 1, putamen): 26.7
VT (Blocking (1.5 mg/kg)) PUT ([5]; rhesus monkey 1, putamen, after SSR504734 1.5 mg/kg): 22.8
VT (baseline) TC ([5]; rhesus monkey 1, temporal cortex): 25.6
VT (Blocking (1.5 mg/kg)) TC ([5]; rhesus monkey 1, temporal cortex, after SSR504734 1.5 mg/kg): 21.8
VT (baseline) THA ([5]; rhesus monkey 1, thalamus): 31.0
VT (Blocking (1.5 mg/kg)) THA ([5]; rhesus monkey 1, thalamus, after SSR504734 1.5 mg/kg): 29.6
VT (baseline) WB ([5]; rhesus monkey 1, whole brain): 23.1
VT (Blocking (1.5 mg/kg)) WB ([5]; rhesus monkey 1, whole brain, after SSR504734 1.5 mg/kg): 18.6
VT (baseline) ACC ([5]; rhesus monkey 2, anterior cingulate cortex): 15.5
VT (Blocking (4.5 mg/kg)) ACC ([5]; rhesus monkey 2, anterior cingulate cortex, after SSR504734 4.5 mg/kg): 9.0
VT (baseline) CAU ([5]; rhesus monkey 2, caudate): 17.0
VT (Blocking (4.5 mg/kg)) CAU ([5]; rhesus monkey 2, caudate, after SSR504734 4.5 mg/kg): 9.2
VT (baseline) CB ([5]; rhesus monkey 2, cerebellum): 12.8
VT (Blocking (4.5 mg/kg)) CB ([5]; rhesus monkey 2, cerebellum, after SSR504734 4.5 mg/kg): 9.0
VT (baseline) FC ([5]; rhesus monkey 2, frontal cortex): 14.3
VT (Blocking (4.5 mg/kg)) FC ([5]; rhesus monkey 2, frontal cortex, after SSR504734 4.5 mg/kg): 8.6
VT (baseline) Pons ([5]; rhesus monkey 2, pons): 16.9
VT (Blocking (4.5 mg/kg)) Pons ([5]; rhesus monkey 2, pons, after SSR504734 4.5 mg/kg): 10.9
VT (baseline) PUT ([5]; rhesus monkey 2, putamen): 15.8
VT (Blocking (4.5 mg/kg)) PUT ([5]; rhesus monkey 2, putamen, after SSR504734 4.5 mg/kg): 10.1
VT (baseline) TC ([5]; rhesus monkey 2, temporal cortex): 12.3
VT (Blocking (4.5 mg/kg)) TC ([5]; rhesus monkey 2, temporal cortex, after SSR504734 4.5 mg/kg): 8.9
VT (baseline) THA ([5]; rhesus monkey 2, thalamus): 15.7
VT (Blocking (4.5 mg/kg)) THA ([5]; rhesus monkey 2, thalamus, after SSR504734 4.5 mg/kg): 11.9
VT (baseline) WB ([5]; rhesus monkey 2, whole brain): 12.6
VT (Blocking (4.5 mg/kg)) WB ([5]; rhesus monkey 2, whole brain, after SSR504734 4.5 mg/kg): 8.5
VND ([1]; baseline + blocking 1.5 mg/kg SSR504734, rhesus monkey 1, one value for all regions): 16.5
VND ([1]; baseline + blocking 4.5 mg/kg SSR504734, rhesus monkey 2, one value for all regions): 7.5
% of VND in VT ACC [1, 6]: 59%
% of VND in VT CAU ([1]; baseline + blocking (1.5 mg/kg), caudate): 55%
% of VND in VT CB ([1]; baseline + blocking (1.5 mg/kg), cerebellum): 50%
% of VND in VT FC [1, 6]: 52%
% of VND in VT Pons ([1]; baseline + blocking (1.5 mg/kg), pons): 66%
% of VND in VT PUT [1, 6]: 55%
% of VND in VT TC [1, 6]: 54%
% of VND in VT ACC [1, 7]: 52%
% of VND in VT FC [1, 7]: 48%
% of VND in VT PUT [1, 7]: 53%
% of VND in VT TC [1, 7]: 39%
Compound: [11CH3]N1CCCCC1[C@@H](NC(=O)c1cccc(C(F)(F)F)c1Cl)c1ccccc1 (stereo partly drawn) [[^11 C]N-methyl-SSR504734, 2-chloro N-[(S)-{(S)-1-[^11 C]methylpiperidin-2-yl} (phenyl)methyl] 3-trifluoromethyl-benzamide]
rank order of regional brain uptake ([3]; baseline): thalamus > pons > cerebellum ≒ putamen > cortical regions > white matter
radioactivity level in brain after pretreatment with SSR504734 ([3]; pretreatment 0.1 to 1.5 mg/kg SSR504734, dose-dependent): increased in all regions
rank order of regional brain uptake ([5]; baseline): thalamus > pons > putamen > frontal cortex≒temporal cortex > cerebellum> > white matter
uptake in the brain regions after pretreatment with SSR504734 ([5]; pretreatment 1.5 and 4.5 mg/kg SSR504734): increase
% decrease of VT ACC ([5]; rhesus monkey 1, anterior cingulate cortex, baseline to blocking with SSR504734 1.5 mg/kg): 21.3%
% decrease of VT CAU ([5]; rhesus monkey 1, caudate, baseline to blocking with SSR504734 1.5 mg/kg): 16.0%
% decrease of VT CB ([5]; rhesus monkey 1, cerebellum, baseline to blocking with SSR504734 1.5 mg/kg): 13.9%
% decrease of VT FC ([5]; rhesus monkey 1, frontal cortex, baseline to blocking with SSR504734 1.5 mg/kg): 18.3%
% decrease of VT Pons ([5]; rhesus monkey 1, pons, baseline to blocking with SSR504734 1.5 mg/kg): 23.9%
% decrease of VT PUT ([5]; rhesus monkey 1, putamen, baseline to blocking with SSR504734 1.5 mg/kg): 14.6%
% decrease of VT TC ([5]; rhesus monkey 1, temporal cortex, baseline to blocking with SSR504734 1.5 mg/kg): 14.8%
% decrease of VT THA ([5]; rhesus monkey 1, thalamus, baseline to blocking with SSR504734 1.5 mg/kg): 4.5%
% decrease of VT ACC ([5]; rhesus monkey 2, anterior cingulate cortex, baseline to blocking with SSR504734 4.5 mg/kg): 41.9%
% decrease of VT CAU ([5]; rhesus monkey 2, caudate, baseline to blocking with SSR504734 4.5 mg/kg): 45.9%
% decrease of VT CB ([5]; rhesus monkey 2, cerebellum, baseline to blocking with SSR504734 4.5 mg/kg): 29.7%
% decrease of VT FC ([5]; rhesus monkey 2, frontal cortex, baseline to blocking with SSR504734 4.5 mg/kg): 39.9%
% decrease of VT Pons ([5]; rhesus monkey 2, pons, baseline to blocking with SSR504734 4.5 mg/kg): 35.5%
% decrease of VT PUT ([5]; rhesus monkey 2, putamen, baseline to blocking with SSR504734 4.5 mg/kg): 36.1%
% decrease of VT TC ([5]; rhesus monkey 2, temporal cortex, baseline to blocking with SSR504734 4.5 mg/kg): 27.6%
% decrease of VT THA ([5]; rhesus monkey 2, thalamus, baseline to blocking with SSR504734 4.5 mg/kg): 24.2%
% decrease of VT WB ([5]; rhesus monkey 2, whole brain, baseline to blocking with SSR504734 4.5 mg/kg): 32.5%
